# Measured values from PMC6709534 (Journal of the American Chemical Society, 2015).
# Test system: H. pylori
# Assay: H. pylori growth on 5% horse blood agar
# Format: cell-based, Helicobacter pylori
# Conditions: versus ∼8 ng/mL of the 10 best MTAN inhibitors
row,fold weaker than the 10 best MTAN inhibitors (IC90 ratio) [fold],Compound
1,2000,Cc1ncc([N+](=O)[O-])n1CCO [Metronidazole]

# Test system: H. pylori
# Assay: not given
# Conditions: antibiotics used in multidrug therapy and moenomycin A; cited from earlier work
row,Compound,IC90 of current antibiotics against H. pylori
1,Cc1ncc([N+](=O)[O-])n1CCO [Metronidazole],16 000 ng/mL
2,CC[C@H]1OC(=O)[C@H](C)[C@@H](O[C@H]2C[C@@](C)(OC)[C@@H](O)[C@H](C)O2)[C@H](C)[C@@H](O[C@@H]2O[C@H](C)C[C@H](N(C)C)[C@H]2O)[C@](C)(OC)C[C@@H](C)C(=O)[C@H](C)[C@@H](O)[C@]1(C)O [clarithromycin],8000 ng/mL
3,C[C@H]1COc2c(N3CCN(C)CC3)c(F)cc3c(=O)c(C(=O)O)cn1c23 [levofloxacin],1000 ng/mL
4,C=C(C/C=C(\C)CCC=C(C)C)CCC(C)(C)/C=C/CC/C(C)=C\CO[C@H](COP(=O)(O)O[C@H]1O[C@H](C(N)=O)[C@@](C)(O)[C@H](OC(N)=O)[C@H]1O[C@@H]1O[C@H](CO[C@@H]2O[C@H](CO)[C@@H](O)[C@H](O)[C@H]2O)[C@@H](O[C@@H]2O[C@H](C)[C@@H](O[C@@H]3O[C@H](C(=O)NC4=C(O)CCC4=O)[C@H](O)[C@H](O)[C@H]3O)[C@H](O)[C@H]2NC(C)=O)[C@H](O)[C@H]1NC(C)=O)C(=O)O [moenomycin A],2000 ng/mL
5,CN(C)[C@@H]1C(O)=C(C(N)=O)C(=O)[C@@]2(O)C(O)=C3C(=O)c4c(O)cccc4[C@@](C)(O)[C@H]3C[C@@H]12 [tetracycline],500 ng/mL
